Experimental data published in ChEMBL document CHEMBL1134879, “3D-QSAR studies on 4-hydroxyphenylpyruvate dioxygenase inhibitors by comparative molecular field analysis (CoMFA)” (Bioorg Med Chem Lett, 2002).

How the values were obtained:
[1] = target: T1, 4-hydroxyphenylpyruvate dioxygenase (Sus scrofa, UniProt Q02110); test: Concentration required to achieve 50% inhibition against 4-Hydroxyphenylpyruvate dioxygenase (HPPD) from pig liver; (observed value)
[2] = target: T1, 4-hydroxyphenylpyruvate dioxygenase; test: Concentration required to achieve 50% inhibition against 4-Hydroxyphenylpyruvate dioxygenase (HPPD) from pig liver
[3] = target: T1, 4-hydroxyphenylpyruvate dioxygenase; test: Concentration required to achieve 50% inhibition against 4-hydroxyphenylpyruvate dioxygenase from pig liver
[4] = target: T1, 4-hydroxyphenylpyruvate dioxygenase; test: Concentration required to achieve 50% inhibition against 4-hydroxyphenylpyruvate dioxygenase from pig liver; (observed value)

T1 sequence (Q02110 whole entry): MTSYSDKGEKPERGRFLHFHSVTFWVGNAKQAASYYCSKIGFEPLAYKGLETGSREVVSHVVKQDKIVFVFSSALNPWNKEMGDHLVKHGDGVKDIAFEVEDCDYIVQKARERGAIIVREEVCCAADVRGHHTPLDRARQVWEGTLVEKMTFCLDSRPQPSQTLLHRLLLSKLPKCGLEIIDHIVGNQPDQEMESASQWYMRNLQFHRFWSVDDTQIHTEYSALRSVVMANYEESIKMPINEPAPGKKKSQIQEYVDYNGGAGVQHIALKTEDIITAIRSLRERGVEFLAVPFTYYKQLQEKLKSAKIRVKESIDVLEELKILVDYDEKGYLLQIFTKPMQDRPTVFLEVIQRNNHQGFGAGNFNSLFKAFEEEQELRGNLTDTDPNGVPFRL

**Q.** What does the source list for CCOC(=O)C1CC(=O)C=C(OC(=O)C2CC2)C1 (stereo not drawn)?
**A.** IC50 [1]: 89.1 nM; IC50 [2]: 90 nM

**Q.** What does the source list for O=C1CCCC(=O)C1=C(O)c1ccccc1Br?
**A.** IC50 [1]: 562 nM; IC50 [2]: 560 nM

**Q.** COC1=CC(=O)C(OC(=O)C2CC2)=CC1=O was tested. Which IC50 [1] did it give?
**A.** The IC50 was 30200 nM.

**Q.** What about the IC50 [2] of the same compound?
**A.** Its IC50 is 30000 nM.

**Q.** CCOC(=O)C1CC(=O)C(C(=O)C2CC2)=C(OC(=O)C2CC2)C1 (stereo not drawn) was tested. Which IC50 [1] did it give?
**A.** The IC50 was 39.8 nM.

**Q.** And the IC50 [2]?
**A.** The IC50 was 40 nM.

**Q.** For O=C(Oc1cc(=O)oc2ccccc12)C1CC1, which IC50 [1] is on record?
**A.** Its IC50 is 110 nM.

**Q.** And the IC50 [2]?
**A.** Its IC50 is 110 nM.

**Q.** CCC(=O)C1=C(O)CCCC1=O was tested. Which IC50 [3] did it give?
**A.** The IC50 was 17800 nM.

**Q.** What about the IC50 [4] of the same compound?
**A.** The IC50 was 17800 nM.

**Q.** For O=C1CCCC(OC(=O)C2CC2)=C1Cl, which IC50 [1] is on record?
**A.** Its IC50 is 20 nM.

**Q.** What about the IC50 [2] of the same compound?
**A.** Its IC50 is 20 nM.

**Q.** How did the IC50 [1] turn out when CC1(C)CC(=O)C=C(OC(=O)C2CC2)C1 was run?
**A.** The IC50 was 331 nM.

**Q.** What about the IC50 [2] of the same compound?
**A.** The IC50 was 330 nM.

**Q.** With Cc1ccccc1C(O)=C1C(=O)CCCC1=O as the compound, how does the IC50 [1] read?
**A.** The IC50 was 3720 nM.

**Q.** What about the IC50 [2] of the same compound?
**A.** Its IC50 is 3750 nM.

**Q.** Which IC50 [1] does the source give for O=C1CCCC(=O)C1=C(O)c1ccccc1I here?
**A.** Its IC50 is 759 nM.

**Q.** And the IC50 [2]?
**A.** The IC50 was 760 nM.

**Q.** Which IC50 [1] does the source give for O=C1C=C(OC(=O)C2CC2)CC1 here?
**A.** The IC50 was 70.8 nM.

**Q.** What about the IC50 [2] of the same compound?
**A.** Its IC50 is 70 nM.

**Q.** What does the source list for O=C1CCCC(=O)C1=C(O)c1ccccc1Cl?
**A.** IC50 [1]: 501 nM; IC50 [2]: 500 nM

**Q.** CC(C)C(=O)C1=C(O)CCCC1=O was tested. Which IC50 [3] did it give?
**A.** The IC50 was 93300 nM.

**Q.** And the IC50 [4]?
**A.** Its IC50 is 93300 nM.

**Q.** How did the IC50 [3] turn out when O=C1CCCC(O)=C1C(=O)C1CCCCC1 was run?
**A.** Its IC50 is 365000 nM.

**Q.** And the IC50 [4]?
**A.** Its IC50 is 363000 nM.

**Q.** What does the source list for O=C(Oc1cccc(O)c1)C1CC1?
**A.** IC50 [1]: 251 nM; IC50 [2]: 250 nM

**Q.** What does the source list for CC(=O)C1=C(O)CCCC1=O?
**A.** IC50 [3]: 11200 nM; IC50 [4]: 11200 nM

**Q.** How did the IC50 [2] turn out when CS(=O)(=O)c1ccc(C(O)=C2C(=O)CCCC2=O)c(Cl)c1 was run?
**A.** The IC50 was 50 nM.

**Q.** What does the source list for O=C1CCCC(O)=C1C(=O)C1CC1?
**A.** IC50 [3]: 6000 nM; IC50 [4]: 6030 nM

**Q.** With COc1ccccc1C(O)=C1C(=O)CCCC1=O as the compound, how does the IC50 [1] read?
**A.** The IC50 was 11700 nM.

**Q.** What about the IC50 [2] of the same compound?
**A.** The IC50 was 11700 nM.

**Q.** Which results are given for O=C1CCCC(=O)C1=C(O)c1ccccc1C(F)(F)F?
**A.** IC50 [1]: 251 nM; IC50 [2]: 250 nM

**Q.** How did the IC50 [1] turn out when O=C1CCCC(OC(=O)C2CC2)=C1Br was run?
**A.** Its IC50 is 30.2 nM.

**Q.** And the IC50 [2]?
**A.** Its IC50 is 30 nM.

**Q.** For O=C1CCCC(=O)C1=C(O)c1ccccc1, which IC50 [1] is on record?
**A.** The IC50 was 11200 nM.

**Q.** What about the IC50 [2] of the same compound?
**A.** Its IC50 is 11200 nM.
